Results published in patent US20260297080A1, “BICYCLIC COMPOUNDS AS CDK INHIBITORS” (BeOne Medicines I GmbH, priority 2022, published 2026).

Tests used:
CDK2/Cyclin E1 = CDK2/Cyclin E1 (Homo sapiens, UniProt P24941); test: CDK2/Cyclin E1 Biochemical Assay (TR-FRET), 0.060 mM ATP; details: 0.15 μM Rb (Ser780)-biotin substrate, pH7.0, 60 min preincubation, 120 min reaction, room temperature
In short: (§1)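 Percent inhibition was derived from the 665 nm/620 nm TR-FRET ratio after a 120-minute room-temperature reaction on 0.15 μM Rb (Ser780)-biotin, preceded by 60-minute enzyme–compound preincubation. IC50 came from four-parameter logistic fitting.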

CDK1/Cyclin B1 = CDK1/Cyclin B1 (Homo sapiens, UniProt P06493); test: CDK1/Cyclin B1 Biochemical Assay (TR-FRET), 0.015 mM ATP; details: 0.15 μM Rb (Ser780)-biotin substrate, pH7.0, 60 min preincubation, 120 min reaction, room temperature
In short: as §1

Sequence of CDK1/Cyclin B1 (P06493 whole entry): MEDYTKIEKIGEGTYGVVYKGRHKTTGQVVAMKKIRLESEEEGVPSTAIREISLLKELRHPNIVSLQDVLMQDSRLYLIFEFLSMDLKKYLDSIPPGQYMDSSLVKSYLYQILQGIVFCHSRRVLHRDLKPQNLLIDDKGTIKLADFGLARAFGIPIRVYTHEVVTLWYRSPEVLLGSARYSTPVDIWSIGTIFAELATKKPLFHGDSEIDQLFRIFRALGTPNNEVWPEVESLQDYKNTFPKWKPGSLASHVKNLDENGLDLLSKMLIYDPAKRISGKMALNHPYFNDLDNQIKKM
Sequence of CDK1/Cyclin B1 (P14635 whole entry partner): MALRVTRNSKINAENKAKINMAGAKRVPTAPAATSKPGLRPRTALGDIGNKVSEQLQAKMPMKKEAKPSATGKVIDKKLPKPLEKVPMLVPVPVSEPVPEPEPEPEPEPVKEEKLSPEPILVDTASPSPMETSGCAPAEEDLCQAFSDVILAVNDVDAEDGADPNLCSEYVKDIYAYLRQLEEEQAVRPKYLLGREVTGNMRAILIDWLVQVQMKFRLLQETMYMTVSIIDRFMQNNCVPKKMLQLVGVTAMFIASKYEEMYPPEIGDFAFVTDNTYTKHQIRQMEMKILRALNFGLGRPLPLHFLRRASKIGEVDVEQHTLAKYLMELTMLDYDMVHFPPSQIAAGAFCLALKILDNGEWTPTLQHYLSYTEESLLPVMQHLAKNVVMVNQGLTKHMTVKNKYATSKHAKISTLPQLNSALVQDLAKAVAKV

## CC(C)NC(=O)O[C@H]1CC[C@@H](c2cc(Nc3cc4c(cc3F)N(C3CC3)S(=O)(=O)C4)n[nH]2)C1 (relative stereo) [Example 302, cis-3-(3-((1-cyclopropyl-6-fluoro-2,2-dioxido-1,3-dihydrobenzo[c]isothiazol-5-yl)amino)-1H-pyrazol-5-yl)cyclopentyl isopropylcarbamate]
CDK2/Cyclin E1
  IC50: 21 nM
CDK1/Cyclin B1
  IC50: 686 nM

## CC(C)NC(=O)O[C@H]1CC[C@@H](c2cc(Nc3ccc4c(c3F)CN(C3CCC3)S4(=O)=O)n[nH]2)C1 (relative stereo) [Example 67, cis-3-(3-((2-cyclobutyl-4-fluoro-1,1-dioxido-2,3-dihydrobenzo[d]isothiazol-5-yl)amino)-1H-pyrazol-5-yl)cyclopentyl isopropylcarbamate]
CDK2/Cyclin E1
  IC50: 14 nM
CDK1/Cyclin B1
  IC50: 472 nM

## CC(C)NC(=O)O[C@H]1CC[C@@H](c2cc(Nc3ccc4c(c3F)CN(C3CCN(C)C3)S4(=O)=O)n[nH]2)C1 (relative stereo) [Example 70, cis-3-(3-((4-fluoro-2-(1-methylpyrrolidin-3-yl)-1,1-dioxido-2,3-dihydrobenzo[d]isothiazol-5-yl)amino-1H-pyrazol-5-yl)cyclopentyl isopropylcarbamate]
CDK2/Cyclin E1
  IC50: 11 nM
CDK1/Cyclin B1
  IC50: 503 nM

## COCC1(NC(=O)O[C@H]2CC[C@@H](c3cc(Nc4ccc5c(c4F)CNS5(=O)=O)n[nH]3)C2)CC1 (racemic) [Example 158, cis-3-(3-((4-fluoro-1,1-dioxido-2,3-dihydrobenzo[d]isothiazol-5-yl)amino)-1H-pyrazol-5-yl)cyclopentyl(1-(methoxymethyl)cyclopropyl)carbamate]
CDK2/Cyclin E1
  IC50: 3.1 nM
CDK1/Cyclin B1
  IC50: 123 nM

## [2H]C([2H])([2H])N1c2ccc(Nc3cc([C@@H]4CC[C@H](OC(=O)NCCC)C4)[nH]n3)c(F)c2CS1(=O)=O (single isomer, unassigned) [Example 268b, cis-3-(3-((4-fluoro-1-(methyl-d3)-2,2-dioxido-1,3-dihydrobenzo[c]isothiazol-5-yl)amino)-1H-pyrazol-5-yl)cyclopentyl propylcarbamate]
CDK2/Cyclin E1
  IC50: 4 nM
CDK1/Cyclin B1
  IC50: 75 nM

## CC(C)(C)NC(=O)O[C@@H]1CC[C@H](c2cc(Nc3cc4c(cc3F)NS(=O)(=O)C4)n[nH]2)C1 [Example 404a]
CDK2/Cyclin E1
  IC50: 18 nM
CDK1/Cyclin B1
  IC50: 717 nM

## CCCNC(=O)O[C@H]1CC[C@@H](c2cc(Nc3ccc4c(c3F)CN(C)S4(=O)=O)n[nH]2)C1 (single isomer, unassigned) [Example 122b, cis-3-(3-((4-fluoro-2-methyl-1,1-dioxido-2,3-dihydrobenzo[d]isothiazol-5-yl)amino)-1H-pyrazol-5-yl)cyclopentyl propylcarbamate]
CDK2/Cyclin E1
  IC50: 8.8 nM
CDK1/Cyclin B1
  IC50: 124 nM

## COc1c(Nc2cc([C@@H]3CC[C@H](OC(=O)NC(C)C)C3)[nH]n2)ccc2c1CNS2(=O)=O (relative stereo) [Example 10, cis-3-(3-((4-methoxy-1,1-dioxido-2,3-dihydrobenzo[d]isothiazol-5-yl)amino)-1H-pyrazol-5-yl)cyclopentyl isopropylcarbamate]
CDK2/Cyclin E1
  IC50: 102 nM
CDK1/Cyclin B1
  IC50: 3020 nM

## O=C(NC1COC1)O[C@H]1CC[C@@H](c2cc(Nc3ccc4c(c3F)CNS4(=O)=O)n[nH]2)C1 (relative stereo) [Example 149, cis-3-(3-((4-fluoro-1,1-dioxido-2,3-dihydrobenzo[d]isothiazol-5-yl)amino)-1H-pyrazol-5-yl)cyclopentyl oxetan-3-ylcarbamate]
CDK2/Cyclin E1
  IC50: 42 nM
CDK1/Cyclin B1
  IC50: 666 nM

## CN1c2ccc(Nc3cc([C@@H]4CC[C@H](OC(=O)NC5(C)CC5)C4)[nH]n3)c(F)c2CS1(=O)=O (relative stereo) [Example 257, cis-3-(3-((4-fluoro-1-methyl-2,2-dioxido-1,3-dihydrobenzo[c]isothiazol-5-yl)amino)-1H-pyrazol-5-yl)cyclopentyl(1-methylcyclopropyl)carbamate]
CDK2/Cyclin E1
  IC50: 1.5 nM
CDK1/Cyclin B1
  IC50: 33 nM
